# Measurements reported in patent US20260216170A1, “TETRAHYDROISOQUINOLINE HETEROBIFUNCTIONAL BCL-XL DEGRADERS” (Treeline Biosciences, Inc., priority 2023, published 2026).
# Target: T1, Human BCL-XL protein (N-terminal HiBiT tagged BCL-XL expressed in HT1080 cells) (Homo sapiens, UniProt Q07817)
# T1 construct: expressed in transfected cells; host or cells: HT-1080 (ATCC CCL-121), stably transduced with lentivirus pLV-UBC-N-HiBiT-BCL-XL-PGK-puro and selected with puromycin
# Assay: HiBiT Based Degradation Assay
# Assay type: cell-based
# Conditions: 24 hours incubation; for DC50: BCL-XL degradation, HT1080 cells expressing N-HiBiT-BCL-XL, normalized with DMSO control, geometric mean for multiple data points, read-out: EC50 (24 h); for Ymin (24 h): bottom of BCL-XL degradation curve (remaining HiBiT-BCL-XL signal vs DMSO control), HT1080 cells
# Outline: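 BCL-XL degradation was read as Nano-Glo HiBiT lytic luminescence relative to DMSO after a 24 h compound treatment of HT1080 cells carrying stably integrated N-HiBiT-BCL-XL. EC50 values come from four-parameter logistic curves, with the hook-curve minimum fixed as bottom, and are geometric means where tested repeatedly.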
# T1 sequence (Q07817 whole entry): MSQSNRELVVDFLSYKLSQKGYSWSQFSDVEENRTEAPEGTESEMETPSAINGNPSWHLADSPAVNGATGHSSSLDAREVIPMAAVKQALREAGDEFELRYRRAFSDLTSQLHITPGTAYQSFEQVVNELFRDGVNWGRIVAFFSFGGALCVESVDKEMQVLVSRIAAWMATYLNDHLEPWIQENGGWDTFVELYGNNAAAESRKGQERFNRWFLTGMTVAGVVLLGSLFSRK
DC50 [nM],Ymin (24 h),Compound
< 10,A (Ymin < 30%),"COc1c(NC(=O)CN2CCC3(CC2)CC(COc2ccc(-c4ccc(N5CCc6cccc(C(=O)Nc7nc8ccccc8s7)c6C5)nc4C(=O)O)c(C)c2)C3)ccc2c(C3CCC(=O)NC3=O)nn(C)c12 (stereo not shown) [Compound 128, 6-(8-(benzo[d]thiazol-2-ylcarbamoyl)-3,4-dihydroisoquinolin-2(1H)-yl)-3-(4-((7-(2-((3-(2,6-dioxopiperidin-3-yl)-7-methoxy-1-methyl-1H-indazol-6-yl)amino)-2-oxoethyl)-7-azaspiro[3.5]nonan-2-yl)methoxy)-2-methylphenyl)picolinic acid]"
100 to 1000,B (30% ≤ Ymin < 50%),Cc1cc2c(C3CCC(=O)NC3=O)nn(C)c2cc1NC(=O)CN1CCC2(CC1)CC(COc1cccc(-c3ccc(N4CCc5cccc(C(=O)Nc6nc7ccccc7s6)c5C4)nc3C(=O)O)c1C)C2 (stereo not shown) [Compound 118]
10 to 100,B (30% ≤ Ymin < 50%),C[C@H]1C[C@H](CCCOc2cccc(-c3ccc(N4CCc5cccc(C(=O)Nc6nc7ccccc7s6)c5C4)nc3C(=O)O)c2C(F)(F)F)CCN1CC(=O)Nc1ccc2c(C3CCC(=O)NC3=O)nn(C)c2c1 (stereo partly shown) [Compound 215a]
< 10,B (30% ≤ Ymin < 50%),"Cn1nc(C2CCC(=O)NC2=O)c2ccc(NC(=O)CN3CCC4(CC3)CC(Oc3cccc(-c5ccc(N6CCc7cccc(C(=O)Nc8nc9ccccc9s8)c7C6)nc5C(=O)O)c3C(F)(F)F)C4)nc21 (stereo not shown) [Compound 192, 6-(8-(benzo[d]thiazol-2-ylcarbamoyl)-3,4-dihydroisoquinolin-2(1H)-yl)-3-(3-((7-(2-((3-(2,6-dioxopiperidin-3-yl)-1-methyl-1H-pyrazolo[3,4-b]pyridin-6-yl)amino)-2-oxoethyl)-7-azaspiro[3.5]nonan-2-yl)oxy)-2-(trifluoromethyl)phenyl)picolinic acid]"
< 10,B (30% ≤ Ymin < 50%),Cn1nc(C2CCC(=O)NC2=O)c2ccc(NC(=O)CN3CCN(CCCO[C@H]4CC[C@H](c5ccc(N6CCc7cccc(C(=O)Nc8nc9ccccc9s8)c7C6)nc5C(=O)O)CC4)CC3)cc21 (stereo partly shown) [Compound 2001a]
10 to 100,B (30% ≤ Ymin < 50%),Cn1nc(C2CCC(=O)NC2=O)c2ccc(NC(=O)CN3CCC4(CC3)CC(Oc3ccc(-c5ccc(N6CCc7cccc(C(=O)Nc8nc9ccccc9s8)c7C6)nc5C(=O)O)c(C(F)(F)F)c3)C4)nc21 (stereo not shown) [Compound 193]
< 10,A (Ymin < 30%),Cc1cc(OC2CCC3(CC2)CCN(CC(=O)Nc2ccc4c(C5CCC(=O)NC5=O)nn(C)c4c2)CC3)ccc1-c1ccc(N2CCc3cccc(C(=O)Nc4nc5ccccc5s4)c3C2)nc1C(=O)O (stereo not shown) [Compound 221]
10 to 100,B (30% ≤ Ymin < 50%),"Cc1cc(O[C@H](C)CCC2CCN(CC(=O)Nc3ccc4c(C5CCC(=O)NC5=O)nn(C)c4n3)CC2)ccc1-c1ccc(N2CCc3cccc(C(=O)Nc4nc5ccccc5s4)c3C2)nc1C(=O)O (single isomer, unassigned) [Compound 225b]"
< 10,A (Ymin < 30%),"Cc1cc(N(C)CCCC2CCN(CC(=O)Nc3ccc4c(C5CCC(=O)NC5=O)nn(C)c4c3)CC2)ccc1-c1ccc(N2CCc3cccc(C(=O)Nc4nc5ccccc5s4)c3C2)nc1C(=O)O (stereo not shown) [Compound 222, 6-(8-(benzo[d]thiazol-2-ylcarbamoyl)-3,4-dihydroisoquinolin-2(1H)-yl)-3-(4-((3-(1-(2-((3-(2,6-dioxopiperidin-3-yl)-1-methyl-1H-indazol-6-yl)amino)-2-oxoethyl)piperidin-4-yl)propyl)(methyl)amino)-2-methylphenyl)picolinic acid]"
10 to 100,B (30% ≤ Ymin < 50%),C[C@@H]1CC(CCCOc2cccc(-c3ccc(N4CCc5cccc(C(=O)Nc6nc7ccccc7s6)c5C4)nc3C(=O)O)c2C(F)(F)F)CCN1CC(=O)Nc1ccc2c(C3CCC(=O)NC3=O)nn(C)c2c1 (stereo partly shown) [Compound 215d]
< 10,B (30% ≤ Ymin < 50%),"Cc1c(OCC2CC3(CCN(CCOc4ccc5c(C6CCC(=O)NC6=O)nn(C)c5c4)CC3)C2)cccc1-c1ccc(N2CCc3cccc(C(=O)Nc4nc5ccccc5s4)c3C2)nc1C(=O)O (stereo not shown) [Compound 152, 6-(8-(benzo[d]thiazol-2-ylcarbamoyl)-3,4-dihydroisoquinolin-2(1H)-yl)-3-(3-((7-(2-((3-(2,6-dioxopiperidin-3-yl)-1-methyl-1H-indazol-6-yl)oxy)ethyl)-7-azaspiro[3.5]nonan-2-yl)methoxy)-2-methylphenyl)picolinic acid]"
< 10,A (Ymin < 30%),"Cc1cc(OCCCC2CCN(CCCc3ccc4c(C5CCC(=O)NC5=O)nn(C)c4c3)CC2)ccc1-c1ccc(N2CCc3cccc(C(=O)Nc4nc5ccccc5s4)c3C2)nc1C(=O)O (stereo not shown) [Compound 151, 6-(8-(benzo[d]thiazol-2-ylcarbamoyl)-3,4-dihydroisoquinolin-2(1H)-yl)-3-(4-(3-(1-(3-(3-(2,6-dioxopiperidin-3-yl)-1-methyl-1H-indazol-6-yl)propyl)piperidin-4-yl)propoxy)-2-methylphenyl)picolinic acid]"
10 to 100,B (30% ≤ Ymin < 50%),"COc1c(NC(=O)CN2CCC3(CC2)CC(Oc2cccc(-c4ccc(N5CCc6cccc(C(=O)Nc7nc8ccccc8s7)c6C5)nc4C(=O)O)c2C(F)(F)F)C3)ccc2c(C3CCC(=O)NC3=O)nn(C)c12 (stereo not shown) [Compound 166, 6-(8-(benzo[d]thiazol-2-ylcarbamoyl)-3,4-dihydroisoquinolin-2(1H)-yl)-3-(3-((7-(2-((3-(2,6-dioxopiperidin-3-yl)-7-methoxy-1-methyl-1H-indazol-6-yl)amino)-2-oxoethyl)-7-azaspiro[3.5]nonan-2-yl)oxy)-2-(trifluoromethyl)phenyl)picolinic acid]"
10 to 100,A (Ymin < 30%),COc1c(NC(=O)CN2CCC3(CC2)CC(COc2cccc(-c4ccc(N5CCc6cccc(C(=O)Nc7nc8ccccc8s7)c6C5)nc4C(=O)O)c2C)C3)ccc2c(C3CCC(=O)NC3=O)nn(C)c12 (stereo not shown) [Compound 127]
< 10,A (Ymin < 30%),"Cc1cc(OCCCC2CCN(CCOc3ccc4c(C5CCC(=O)NC5=O)nn(C)c4c3)CC2)ccc1-c1ccc(N2CCc3cccc(C(=O)Nc4nc5ccccc5s4)c3C2)nc1C(=O)O (stereo not shown) [Compound 178, 6-[8-(1,3-benzothiazol-2-ylcarbamoyl)-3,4-dihydro-1H-isoquinolin-2-yl]-3-[4-[3-[1-[2-[3-(2,6-dioxo-3-piperidyl)-1-methyl-indazol-6-yl]oxyethyl]-4-piperidyl]propoxy]-2-methyl-phenyl]pyridine-2-carboxylic acid]"
10 to 100,B (30% ≤ Ymin < 50%),Cc1cc2c(C3CCC(=O)NC3=O)nn(C)c2cc1NC(=O)CN1CCC2(CC1)CC(COc1ccc(-c3ccc(N4CCc5cccc(C(=O)Nc6nc7ccccc7s6)c5C4)nc3C(=O)O)c(C)c1)C2 (stereo not shown) [Compound 125]
< 10,B (30% ≤ Ymin < 50%),Cc1c(OCC[C@@H]2C[C@@H]3CN(CC(=O)Nc4ccc5c(C6CCC(=O)NC6=O)nn(C)c5c4)C[C@@H]3C2)cccc1-c1ccc(N2CCc3cccc(C(=O)Nc4nc5ccccc5s4)c3C2)nc1C(=O)O (stereo partly shown) [Compound 173a]
10 to 100,B (30% ≤ Ymin < 50%),Cc1c(OCC2CC3(CCN(CC(=O)Nc4ccc5c(C6CCC(=O)NC6=O)nn(C)c5c4F)CC3)C2)cccc1-c1ccc(N2CCc3cccc(C(=O)Nc4nc5ccccc5s4)c3C2)nc1C(=O)O (stereo not shown) [Compound 120]
10 to 100,B (30% ≤ Ymin < 50%),"COc1c(NC(=O)CN2CCC(CCCOc3cccc(-c4ccc(N5CCc6cccc(C(=O)Nc7nc8ccccc8s7)c6C5)nc4C(=O)O)c3C)CC2)ccc2c(C3CCC(=O)NC3=O)nn(C)c12 (stereo not shown) [Compound 104, 6-[8-(1,3-benzothiazol-2-ylcarbamoyl)-3,4-dihydro-1H-isoquinolin-2-yl]-3-[3-[3-[1-[2-[[3-(2,6-dioxo-3-piperidyl)-7-methoxy-1-methyl-indazol-6-yl]amino]-2-oxo-ethyl]-4-piperidyl]propoxy]-2-methyl-phenyl]pyridine-2-carboxylic acid]"
< 10,B (30% ≤ Ymin < 50%),"Cc1c(OC[C@@H]2C[C@@H]2CC2CCN(CC(=O)Nc3ccc4c(C5CCC(=O)NC5=O)nn(C)c4c3)CC2)cccc1-c1ccc(N2CCc3cccc(C(=O)Nc4nc5ccccc5s4)c3C2)nc1C(=O)O (single isomer, unassigned) [Compound 1004c]"
10 to 100,B (30% ≤ Ymin < 50%),"Cc1c(OCCC2CC3(CCN(CC(=O)Nc4ccc5c(C6CCC(=O)NC6=O)nn(C)c5c4)CC3)C2)cccc1-c1ccc(N2CCc3cccc(C(=O)Nc4nc5ccccc5s4)c3C2)nc1C(=O)O (stereo not shown) [Compound 114, 6-(8-(benzo[d]thiazol-2-ylcarbamoyl)-3,4-dihydroisoquinolin-2(1H)-yl)-3-(3-(2-(7-(2-((3-(2,6-dioxopiperidin-3-yl)-1-methyl-1H-indazol-6-yl)amino)-2-oxoethyl)-7-azaspiro[3.5]nonan-2-yl)ethoxy)-2-methylphenyl)picolinic acid]"
< 10,A (Ymin < 30%),Cc1cc(OCCC[C@H]2CCN(CC(=O)Nc3ccc4c(C5CCC(=O)NC5=O)nn(C)c4c3)[C@H](C)C2)ccc1-c1ccc(N2CCc3ccnc(C(=O)Nc4nc5ccccc5s4)c3C2)nc1C(=O)O (stereo partly shown) [Compound 219c]
< 10,B (30% ≤ Ymin < 50%),COc1c(NC(=O)CN2CC[C@@H](CCCOc3cccc(-c4ccc(N5CCc6ccnc(C(=O)Nc7nc8ccccc8s7)c6C5)nc4C(=O)O)c3C)C[C@@H]2C)ccc2c(C3CCC(=O)NC3=O)nn(C)c12 (stereo partly shown) [Compound 216b]
